“And” between values parts separate entries of the source, which are not always exact repeats. Identical values can stand only once. Like-named read-outs stand apart in the source and are kept apart here.
Legend:
HIV-1 NL4-3D36G = experiment: Inhibition of infection by T-20-sensitive strain NL4-3D36G; type: cell-based; conditions: NL4-3D36G
Description: 2. Inhibition of HIV infection as measured by luciferase assay. The inhibitory activity of fusion/entry inhibitors on HIV infection in TZM-bl cells was determined by using a luciferase assay (Wei X et al. Antimicrob. Agents Chemother. 46:1896-1905, 2002). Briefly, 50 μl of a compound at graded concentration in triplicate were incubated with an equal volume of an HIV-1 isolate at 0.01 multiplicity of infection (MOI) at 37° C. for 30 min, followed by addition of the mixture to 100 μl TZM-bl cells (1×10^5/ml) that were pre-cultured in a 96-well plate at 37° C. overnight. After further culture at 37° C. for 3 days, the cells were harvested and lyzed with 50 μl lysing reagent. The luciferase activity was analyzed using a luciferase kit (Promega Corp.) and a luminometer (Model: Ultra […], Tecan) according to the manufacture's instruction. The percent inhibition of cell fusion by a compound as well as EC50 and EC90 values were calculated using the software CalcuSyn.
3. Inhibition of HIV replication as measured by p24 antigen production. The inhibitory activity of fusion/entry inhibitors on HIV-1 infection as measured by p24 antigen production was determined as previously described (Zhao Q et al. AIDS Res Hum Retroviruses 18:989-997, 2002). In brief, 1×10^4 MT-2 cells were infected with an HIV-1 strain (100 TCID50) in 200 μl RPMI 1640 medium containing 10% FBS in the presence or absence of testing compounds at graded concentrations overnight. Then the culture supernatants were removed and fresh media containing no testing compounds were added. On the fourth day post-infection, 100 μl of culture supernatants were collected from each well, mixed with equal volumes of 5% Triton X-100 and assayed for p24 antigen, which was quantitated by ELISA. Briefly, wells of polystyrene plates were coated with HIV immunoglobulin (HIVIG, prepared from plasma of HIV-seropositive donors with high neutralizing titers against HIV-1IIIB), in 0.085 M carbonate-bicarbonate buffer (pH 9.6) at 4° C. overnight, followed by washes with washing buffer (0.01 M PBS containing 0.05% Tween-20) and blocking with PBS containing 1% dry fat-free milk. Virus lysates were added to the wells and incubated at 37° C. for 1 hr. […] Reactions were terminated by addition of 1N H2SO4. Absorbance at 450 nm was recorded in an ELISA reader (Ultra 384, TECAN). Recombinant protein p24, purchased from US Biological, was included for establishing standard dose response curves. Each sample was tested in triplicate. The percentage of inhibition of p24 production was calculated as previously described (Neurath A R et al. BMC Infect Dis 2:6, 2002).
(§1) 4. Synergy analysis. […] In all analyses, HIV fusion/entry inhibitors were assumed to act noncompetitively, which led to a more conservative estimate of synergy. CI values<1 and >1 indicate synergy and antagonism, respectively. Dose reductions were calculated as the compound concentrations required for inhibition of HIV-1 replication when the compound was used alone and in combination. The statistic analysis was performed by the One-Way Analysis of Variance (One-Way ANOVA) method using Origin 6.1 software.

[1] = tested on: HIV-1 93IN101 (subtype C, R5)
Description: Inhibitory activity of fusion/entry inhibitors on infection by a primary HIV-1 isolate was determined as previously described (Jiang S et al. Antimicrob Agents Chemother 48:4349-4359, 2004). Peripheral blood mononuclear cells (PBMCs) were isolated from the blood of healthy donors by standard density gradient centrifugation using Histopaque-1077 (Sigma). The cells were plated in 75 cm^2 plastic flasks and incubated at 37° C. for 2 hrs. The nonadherent cells were collected and resuspended at 5×10^6 in 10 ml RPMI-1640 medium containing 10% FBS, 5 μg/ml PHA (phytohemagglutinin) and 100 U/ml IL-2 (Sigma), followed by incubation at 37° C. for 3 days. The PHA-stimulated cells were infected with a primary HIV-1 isolates at 0.01 MOI in the absence or presence of a compound at graded concentrations. Culture media were changed every 3 days. The supernatants were collected 7 days post-infection and tested for p24 antigen by ELISA as described above. The percent inhibition of p24 production and EC50 values were calculated as described above.
as §1

[2] = tested on: HIV-1-mediated cell-cell fusion (H9/HIV-1IIIB cells and MT-2 cells); experiment: HIV-1-mediated cell-cell fusion, dye transfer assay; type: cell-based
Description: The inhibitory activities of the compounds on HIV-induced cell-cell fusion were determined using a dye transfer assay (Jiang S et al. Proc SPIE 3926:212-219, 2000). Briefly, H9/HIV-1IIIB cells were pre-labeled with a fluorescent dye, Calcein AM (Molecular Probes, Inc.), and incubated with a testing compound at a graded concentration at 37° C. for 30 min in a 96-well cell culture plate. Then the CD4^+ MT-2 cells were added to the H9/HIV-1IIIB cells at a ratio of 10:1, followed by incubation at 37° C. for 2 hrs. The fused and unfused calcein-labeled HIV-1-infected cells were counted under an inverted fluorescence microscope with an eyepiece micrometer disc.

[3] = in combination T-20:C34 (8:1) vs alone
[4] = in combination T-20:Sifuvirtide (4:1)
[5] = in combination T-20:Sifuvirtide (4:1) vs alone
[6] = in combination T-20:T-1144 (4:1)
[7] = in combination T-20:T-1144 (4:1) vs alone
[8] = in combination T-20:T-1249 (4:1)
[9] = in combination T-20:T-1249 (4:1) vs alone
[10] = in combination T-20:T-1249:C34 (8:2:1)
[11] = in combination T-20:T-1249:C34 (8:2:1) vs alone
[12] = in combination T-20:T-1249:T-1144 (4:1:1)
[13] = in combination T-20:T-1249:T-1144 (4:1:1) vs alone
[14] = peptide tested alone, listed as T20

enfuvirtide
Dose reduction (HIV-1 NL4-3D36G; T-20+T-1249+T-1144 7:5:1): 18.61 fold | Dose reduction (HIV-1 NL4-3D36G; T-20 combined with T-1144): 15.53 fold | Dose reduction (HIV-1 NL4-3D36G; T-20 combined with T-1249): 6.48 fold | Dose reduction ([1]; 93IN101, T-20+T-1249+T-1144 4:1:1): 15.70 fold | Dose reduction ([1]; 93IN101, T-20 combined with T-1144): 9.30 fold | Dose reduction ([1]; 93IN101, T-20 combined with T-1249): 10.90 fold | EC50 ([1]; read-out: EC50 alone, 93IN101 (C, R5) primary isolate, peptide alone): 39.9 nM | EC50 ([1]; read-out: EC50 in mixture, 93IN101, T-20+T-1249+T-1144 4:1:1): 2.54 nM | EC50 ([1]; read-out: EC50 in mixture, 93IN101, T-20 combined with T-1144, ratios 4:1:1): 4.29 nM | EC50 ([1]; read-out: EC50 in mixture, 93IN101, T-20 combined with T-1249, ratios 4:1:1): 3.66 nM | EC70 Concentration Mix ([2]; in combination T-20:C34 (8:1)): 0.427 nM | EC95 Concentration Mix ([2]; in combination T-20:C34 (8:1)): 0.682 nM | Potency increase at EC50 [2, 3]: 61.108 fold | Potency increase at EC70 [2, 3]: 62.834 fold | Potency increase at EC95 [2, 3]: 65.594 fold | EC50 ([2]; in combination T-20:C34 (8:1), read-out: EC50 Concentration Mix): 0.324 nM | EC90 ([2]; in combination T-20:C34 (8:1), read-out: EC90 Concentration Mix): 0.564 nM | EC70 Concentration Mix [2, 4]: 2.356 nM | EC95 Concentration Mix [2, 4]: 3.537 nM | Potency increase at EC50 [2, 5]: 8.928 fold | Potency increase at EC70 [2, 5]: 8.863 fold | Potency increase at EC95 [2, 5]: 8.757 fold | EC50 ([2]; in combination T-20:Sifuvirtide (4:1), read-out: EC50 Concentration Mix): 1.85 nM | EC90 ([2]; in combination T-20:Sifuvirtide (4:1), read-out: EC90 Concentration Mix): 3 nM | EC70 Concentration Mix [2, 6]: 0.033 nM | EC95 Concentration Mix [2, 6]: 0.052 nM | Potency increase at EC50 [2, 7]: 791.960 fold | Potency increase at EC70 [2, 7]: 813.030 fold | Potency increase at EC95 [2, 7]: 860.288 fold | EC50 ([2]; in combination T-20:T-1144 (4:1), read-out: EC50 Concentration Mix): 0.025 nM | EC90 ([2]; in combination T-20:T-1144 (4:1), read-out: EC90 Concentration Mix): 0.043 nM | EC70 Concentration Mix [2, 8]: 0.051 nM | EC95 Concentration Mix [2, 8]: 0.082 nM | Potency increase at EC50 [2, 9]: 521.026 fold | Potency increase at EC70 [2, 9]: 526.078 fold | Potency increase at EC95 [2, 9]: 545.549 fold | EC50 ([2]; in combination T-20:T-1249 (4:1), read-out: EC50 Concentration Mix): 0.038 nM | EC90 ([2]; in combination T-20:T-1249 (4:1), read-out: EC90 Concentration Mix): 0.068 nM | EC70 Concentration Mix [2, 10]: 0.070 nM | EC95 Concentration Mix [2, 10]: 0.108 nM | Potency increase at EC50 [2, 11]: 366.648 fold | Potency increase at EC70 [2, 11]: 383.286 fold | Potency increase at EC90 [2, 11]: more than 399 fold | Potency increase at EC95 [2, 11]: 414.213 fold | Potency increase at EC90 ([2]; in combination T-20:T-1249:C34 (8:2:1) vs alone, listed as T20): 399.648 fold | EC50 ([2]; in combination T-20:T-1249:C34 (8:2:1), read-out: EC50 Concentration Mix): 0.054 nM | EC90 ([2]; in combination T-20:T-1249:C34 (8:2:1), read-out: EC90 Concentration Mix): 0.091 nM | EC70 Concentration Mix [2, 12]: 0.019 nM | EC95 Concentration Mix [2, 12]: 0.029 nM | Potency increase at EC50 [2, 13]: 1319.933 fold | Potency increase at EC70 [2, 13]: 1412.105 fold | Potency increase at EC95 [2, 13]: 1542.586 fold | EC50 ([2]; in combination T-20:T-1249:T-1144 (4:1:1), read-out: EC50 Concentration Mix): 0.015 nM | EC90 ([2]; in combination T-20:T-1249:T-1144 (4:1:1), read-out: EC90 Concentration Mix): 0.025 nM | EC70 Concentration Alone ([2]; peptide tested alone): 26.830 nM and 20.882 nM | EC95 Concentration Alone ([2]; peptide tested alone): 44.735 nM and 30.973 nM | EC70 Concentration Alone [2, 14]: 26.830 nM | EC95 Concentration Alone [2, 14]: 44.735 nM | EC50 ([2]; peptide tested alone, read-out: EC50 Concentration Alone): 19.8 nM and 16.5 nM | EC90 ([2]; peptide tested alone, read-out: EC90 Concentration Alone): 36.4 nM and 26.4 nM

Source: patent US7919101B2 (priority 2008, dated 2011)
